Data on 14 compounds can be found in EP4038059B1, “SUBSTITUTED CARBAZOLE COMPOUNDS” (Bristol-Myers Squibb Company, priority 2019, dated 2021).

Assay type in all cases: cell-based
One experiment addresses T1, human TLR9 (Homo sapiens, UniProt Q9NR96).
T1 construct: host or cells: HEK-Blue cells
T1 sequence (Q9NR96 26-1032): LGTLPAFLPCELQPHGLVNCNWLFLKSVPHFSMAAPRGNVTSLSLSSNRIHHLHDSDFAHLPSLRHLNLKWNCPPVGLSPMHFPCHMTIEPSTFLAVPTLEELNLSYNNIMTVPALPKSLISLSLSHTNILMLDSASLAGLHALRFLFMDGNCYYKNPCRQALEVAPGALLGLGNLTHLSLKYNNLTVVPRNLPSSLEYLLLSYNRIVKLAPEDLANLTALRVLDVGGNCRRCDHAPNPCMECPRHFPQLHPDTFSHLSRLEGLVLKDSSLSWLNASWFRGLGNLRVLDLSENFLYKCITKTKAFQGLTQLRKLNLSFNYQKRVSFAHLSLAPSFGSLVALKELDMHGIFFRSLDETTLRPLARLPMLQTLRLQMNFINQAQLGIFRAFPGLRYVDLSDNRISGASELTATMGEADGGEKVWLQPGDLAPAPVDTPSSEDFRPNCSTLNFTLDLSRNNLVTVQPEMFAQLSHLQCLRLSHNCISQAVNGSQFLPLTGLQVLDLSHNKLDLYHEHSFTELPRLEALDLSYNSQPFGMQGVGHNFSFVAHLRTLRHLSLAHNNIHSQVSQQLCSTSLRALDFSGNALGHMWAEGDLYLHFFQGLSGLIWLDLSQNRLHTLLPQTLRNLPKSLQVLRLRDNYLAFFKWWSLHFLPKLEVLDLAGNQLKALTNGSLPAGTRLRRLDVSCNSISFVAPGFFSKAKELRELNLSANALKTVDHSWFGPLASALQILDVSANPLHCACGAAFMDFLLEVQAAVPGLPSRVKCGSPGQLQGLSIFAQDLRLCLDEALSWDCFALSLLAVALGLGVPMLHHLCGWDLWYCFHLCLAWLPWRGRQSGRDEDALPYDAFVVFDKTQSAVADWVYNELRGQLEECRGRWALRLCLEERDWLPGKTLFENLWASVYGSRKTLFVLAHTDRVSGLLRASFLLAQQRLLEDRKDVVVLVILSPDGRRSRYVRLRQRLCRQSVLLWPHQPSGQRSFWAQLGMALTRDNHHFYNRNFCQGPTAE
Nature of the experiment: TLR9 inhibition reporter assay (HEK-Blue SEAP). Particulars: HEK-Blue cells overexpressing human TLR9, stimulated with ODN2006 5 nM, 22 h incubation. As for the experimental part:
(§1) HEK-Blue™-cells (Invivogen) overexpressing human TLR7, TLR8 or TLR9 receptors were used for screening inhibitors of these receptors using an inducible SEAP (secreted embryonic alkaline phosphatase) reporter gene under the control of the IFN-β minimal promoter fused to five NF-κB and AP-1-binding sites. Briefly, cells are seeded into Greiner 384 well plates (15000 cells per well for TLR7, 20,000 for TLR8 and 25,000 for TLR9) and then treated with test compounds in DMSO to yield a final dose response concentration range of 0.05 nM - 50 µM. After a 30 minute compound pre-treatment at room temperature, the cells are then stimulated with a TLR7 ligand (gardiquimod at a final concentration of 7.5 µM), TLR8 ligand (R848 at a final concentration of 15.9 µM) or TLR9 ligand (ODN2006 at a final concentration of 5 nM) to activate NF-κB and AP-1 which induce the production of SEAP. After a 22 h incubation at 37°C, 5% CO2, SEAP levels are determined with the addition of HEK-Blue™ Detection reagent (Invivogen), a cell culture medium that allows for detection of SEAP, according to manufacturer's specifications. The percent inhibition is determined as the % reduction in the HEK-Blue signal present in wells treated with agonist plus DMSO alone compared to wells treated with a known inhibitor.
Background: Reporter assays use an easily measured gene product as a stand-in for the process of interest.

Another experiment addresses T2, human TLR8 (Homo sapiens, UniProt Q9NR97).
T2 construct: host or cells: HEK-Blue cells
T2 sequence (Q9NR97 27-1041): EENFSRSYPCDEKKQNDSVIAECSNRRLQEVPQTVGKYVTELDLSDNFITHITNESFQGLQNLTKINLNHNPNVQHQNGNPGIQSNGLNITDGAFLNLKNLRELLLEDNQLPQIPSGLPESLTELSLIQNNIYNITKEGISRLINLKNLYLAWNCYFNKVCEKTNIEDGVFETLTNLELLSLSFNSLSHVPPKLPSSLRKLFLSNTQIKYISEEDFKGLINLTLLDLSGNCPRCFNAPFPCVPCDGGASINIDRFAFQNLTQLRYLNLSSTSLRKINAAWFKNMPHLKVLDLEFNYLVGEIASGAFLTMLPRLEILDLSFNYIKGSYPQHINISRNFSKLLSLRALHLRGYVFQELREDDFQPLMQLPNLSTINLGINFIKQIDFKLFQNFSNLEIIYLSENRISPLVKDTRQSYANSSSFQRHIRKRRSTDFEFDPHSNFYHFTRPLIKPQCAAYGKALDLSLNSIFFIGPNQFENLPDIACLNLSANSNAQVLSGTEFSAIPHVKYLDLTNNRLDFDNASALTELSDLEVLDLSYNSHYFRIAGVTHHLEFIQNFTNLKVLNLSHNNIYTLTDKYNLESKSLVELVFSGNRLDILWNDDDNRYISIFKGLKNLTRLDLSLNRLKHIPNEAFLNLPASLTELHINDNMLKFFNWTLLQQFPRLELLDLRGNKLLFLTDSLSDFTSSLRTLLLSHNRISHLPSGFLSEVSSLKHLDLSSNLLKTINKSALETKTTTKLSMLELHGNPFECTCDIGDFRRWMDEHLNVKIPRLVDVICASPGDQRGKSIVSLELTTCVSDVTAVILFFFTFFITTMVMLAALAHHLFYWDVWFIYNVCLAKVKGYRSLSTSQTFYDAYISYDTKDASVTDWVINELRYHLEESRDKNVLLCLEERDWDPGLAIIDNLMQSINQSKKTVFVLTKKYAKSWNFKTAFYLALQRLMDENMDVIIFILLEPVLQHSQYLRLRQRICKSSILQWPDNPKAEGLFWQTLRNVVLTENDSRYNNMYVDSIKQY
In words: TLR8 inhibition reporter assay (HEK-Blue SEAP). Particulars: HEK-Blue cells overexpressing human TLR8, stimulated with R848 15.9 µM, 22 h incubation. The method, then:
as §1

Another experiment deals with T3, human TLR7 (Homo sapiens, UniProt Q9NYK1).
T3 construct: host or cells: HEK-Blue cells
T3 sequence (Q9NYK1 27-1049): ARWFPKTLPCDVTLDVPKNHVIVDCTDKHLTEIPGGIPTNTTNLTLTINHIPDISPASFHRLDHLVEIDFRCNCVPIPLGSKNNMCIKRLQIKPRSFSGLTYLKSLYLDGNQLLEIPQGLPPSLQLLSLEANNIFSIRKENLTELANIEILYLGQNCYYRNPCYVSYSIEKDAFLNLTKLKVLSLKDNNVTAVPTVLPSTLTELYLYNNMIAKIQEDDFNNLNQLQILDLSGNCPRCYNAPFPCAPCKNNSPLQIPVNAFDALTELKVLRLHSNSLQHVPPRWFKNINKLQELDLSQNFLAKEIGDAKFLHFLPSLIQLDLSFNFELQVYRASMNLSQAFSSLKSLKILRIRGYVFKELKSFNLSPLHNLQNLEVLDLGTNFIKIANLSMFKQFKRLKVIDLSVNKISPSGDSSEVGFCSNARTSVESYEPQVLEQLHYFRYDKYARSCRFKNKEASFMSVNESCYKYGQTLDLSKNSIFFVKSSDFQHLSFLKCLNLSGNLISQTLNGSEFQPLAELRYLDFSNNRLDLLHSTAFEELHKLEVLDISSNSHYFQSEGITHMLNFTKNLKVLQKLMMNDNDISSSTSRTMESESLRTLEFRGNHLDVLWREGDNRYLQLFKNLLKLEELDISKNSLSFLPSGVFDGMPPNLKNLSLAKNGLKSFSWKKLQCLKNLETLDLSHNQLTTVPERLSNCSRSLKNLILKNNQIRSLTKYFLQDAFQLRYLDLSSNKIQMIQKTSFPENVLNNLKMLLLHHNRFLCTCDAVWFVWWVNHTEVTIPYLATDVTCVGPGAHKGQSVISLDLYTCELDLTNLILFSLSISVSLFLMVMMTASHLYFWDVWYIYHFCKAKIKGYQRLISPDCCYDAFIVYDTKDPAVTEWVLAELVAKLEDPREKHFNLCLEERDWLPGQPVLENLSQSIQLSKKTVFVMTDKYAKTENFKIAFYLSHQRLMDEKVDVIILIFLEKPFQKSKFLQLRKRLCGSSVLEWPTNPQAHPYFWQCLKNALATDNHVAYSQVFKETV
In words: TLR7 inhibition reporter assay (HEK-Blue SEAP). To be noted: HEK-Blue cells overexpressing human TLR7, stimulated with gardiquimod 7.5 µM, 22 h incubation. As for the experimental part:
as §1

With `COc1cc(-c2cc3[nH]c4ccc(C5CN(CC(C)(C)O)C5)cc4c3c(C)c2C)cn2ncnc12` [Example 38], the half-maximal inhibitory concentration (IC50) (commonly the point on the concentration scale where inhibition reaches its midpoint) on human TLR9 came to 514 nM; on human TLR8, 0.4 nM; against human TLR7, 2.5 nM.
For `Cc1c(-c2cc(C)c3c(c2)[nH]c2ccc(C4CCNCC4)cc23)cn(C)c(=O)c1C` [Example 10, 1,3,4-trimethyl-5-(4-methyl-6-(piperidin-4-yl)-9H-carbazol-2-yl)pyridin-2(1H)-one] the same measures were 350 nM, 2.4 nM and 2.2 nM.
For `Cc1cc(-c2ccc3c(c2)[nH]c2ccc(C4CCNCC4)cc23)cn2ncnc12` [Example 3, 2-(8-methyl-[1,2,4]triazolo[1,5-a]pyridin-6-yl)-6-(piperidin-4-yl)-9H-carbazole] the same measures were 668 nM, 358 nM and 109 nM.
Consider `Cc1noc(C)c1-c1ccc2c(c1)[nH]c1ccc(C3CCNCC3)cc12` [Example 1, 3,5-dimethyl-4-(6-(piperidin-4-yl)-9H-carbazol-2-yl)isoxazole], for which the IC50 was determined as 1060 nM against human TLR9, 209 nM on human TLR8 and 651 nM at human TLR7.
As to `Cc1cc(-c2cc(C)c3ncnn3c2)cc2[nH]c3ccc(C4CCN(CC(C)(C)O)CC4)cc3c12` [Example 19], the values for the IC50 against human TLR9, at human TLR8 and at human TLR7 were 416 nM, 4 nM and 1.8 nM, respectively.
For `COc1cc(-c2cc3[nH]c4ccc(C5CCNCC5)cc4c3c(C)c2C)cn2ncnc12` [Example 15, 2-(8-Methoxy-[1,2,4]triazolo[1,5-a]pyridin-6-yl)-3,4-dimethyl-6-(piperidin-4-yl)-9H-carbazole] the same measures were 95 nM, 0.8 nM and 0.8 nM.
For `CN1CCC(c2ccc3c(c2)[nH]c2ccc(C4CCNCC4)cc23)CC1=O` (centres unmarked) [Example 6, 1-methyl-4-(6-(piperidin-4-yl)-9H-carbazol-2-yl)piperidin-2-one] the same measures were 1050 nM, over 3130 nM and over 3130 nM.
For `COc1cc(-c2cc3[nH]c4ccc(C5CNC5)cc4c3c(C)c2C)cn2ncnc12` [Example 29, 6-(azetidin-3-yl)-2-(8-methoxy-[1,2,4]triazolo[1,5-a]pyridin-6-yl)-3,4-dimethyl-9H-carbazole] the same measures were 228 nM, 1 nM and 3.1 nM.
Turning to `Cc1cc(-c2ccc3c(c2)[nH]c2ccc(C4CCNCC4)cc23)cc(C)n1` [Example 2, 2-(2,6-Dimethylpyridin-4-yl)-6-(piperidin-4-yl)-9H-carbazole], the IC50 against human TLR9 came to 53 nM; on human TLR8, 103 nM; on human TLR7, 22 nM.
For `COc1cc(-c2cc3[nH]c4ccc(C5CN(CCS(C)(=O)=O)C5)cc4c3c(C)c2C)cn2ncnc12` [Example 30, 2-(8-methoxy-[1,2,4]triazolo[1,5-a]pyridin-6-yl)-3,4-dimethyl-6-(1-(2-(methylsulfonyl)ethyl)azetidin-3-yl)-9H-carbazole], in that order: 813 nM, 1 nM and 5.5 nM.
Regarding `Cc1c(-c2cc(C)c3c(c2)[nH]c2ccc(C4CCN(CC(C)(C)O)CC4)cc23)cn(C)c(=O)c1C` [Example 18, 5-(6-(1-(2-Hydroxy-2-methylpropyl)piperidin-4-yl)-4-methyl-9H-carbazol-2-yl)-1,3,4-trimethylpyridin-2(1H)-one], the IC50 against human TLR9 was 650 nM; against human TLR8 it was 0.9 nM; at human TLR7, 3.2 nM.
On to `Cc1c(-c2ccc3c(c2)[nH]c2ccc(C4CCNCC4)cc23)cn(C)c(=O)c1C` [Example 5, 1,3,4-trimethyl-5-(6-(piperidin-4-yl)-9H-carbazol-2-yl)pyridin-2(1H)-one], for which the values for the IC50 at human TLR9, against human TLR8 and at human TLR7 were 182 nM, 29 nM and 16 nM, respectively.
For `Cn1cc(-c2ccc3c(c2)[nH]c2ccc(C4CCNCC4)cc23)cn1` [Example 8, 2-(1-methyl-1H-pyrazol-4-yl)-6-(piperidin-4-yl)-9H-carbazole] the same measures were 648 nM, 861 nM and 1380 nM.
Regarding `COc1cc(-c2cc3[nH]c4ccc(C5CN(C6CCOCC6)C5)cc4c3c(C)c2C)cn2ncnc12` [Example 37], the IC50 was found to be 1050 nM against human TLR9 and 1.3 nM on human TLR8.
